Assay results as given in PubChem BioAssay AID1549 (Sanford-Burnham Center for Chemical Genomics, 2009).
Activity calls are given as the source filed them. The rule behind the calls is not given here.

Target: Influenza A virus M2 proton channel (A/TW/4845/1999 H1N1)
Assay: NMR binding screen, influenza A virus M2 proton channel, Kd (AID 1549)
Conditions: M2 protein

Structure (SMILES)	Kd
Nc1ccc2[nH]ncc2c1	> 4 mM (inactive)
Fc1cccc(F)c1CN1CCN(c2ncccn2)CC1	> 4 mM (inactive)
NC(=O)NC1NC(=O)NC1=O (stereo not given)	> 4 mM (inactive)
C=CCNC(=O)c1nn2cccnc2c1Cl	> 4 mM (inactive)
CC(=O)Oc1ccc(/C=C/c2cc(OC(C)=O)cc(OC(C)=O)c2)cc1	> 4 mM (inactive)
Cc1nccc2c1[nH]c1ccccc12	> 4 mM (inactive)
NC(=S)NC1CCS(=O)(=O)C1 (stereo not given)	> 4 mM (inactive)
Fc1ccc(N2CCNCC2)cc1	> 4 mM (inactive)
CC(C)=CCCC1(C)C=Cc2c(O)c3c(c(CC=C(C)C)c2O1)OC12C(=CCCC1C(C)(C)O[C@@]2(C/C=C(\C)C(=O)O)C(=O)O)C3=O (stereo not given in full)	> 4 mM (inactive)
Cc1cccc(NC(=O)c2ccccc2C(=O)O)c1	> 4 mM (inactive)
NCc1nnnn1-c1ccccc1	> 4 mM (inactive)
CC(=O)OC(C)(C)[C@@H]1Cc2cc3ccc(=O)oc3cc2O1	> 4 mM (inactive)
O=C(Nc1cccc(Cl)c1)c1cnn2cccnc12	> 4 mM (inactive)
CN1CCC(N(C)Cc2cccnc2)CC1	> 4 mM (inactive)
NC(=O)C(=O)Nc1nc(-c2ccccc2)cs1	> 4 mM (inactive)
NCC(N)C(=O)c1ccccc1 (stereo not given)	> 4 mM (inactive)
COc1ccc2nc(NC(=O)c3cnccn3)sc2c1	> 4 mM (inactive)
NC(=O)Cn1cnc(-c2ccc(F)cc2)c1	> 4 mM (inactive)
CCc1c(C)n([O-])c2c([n+]1=O)CCC2	> 4 mM (inactive)
O=C1NC(=S)NC(=O)C1=Cc1ccco1	> 4 mM (inactive)
Cc1ccc(-c2nc(N)n(C(=O)c3cccnc3)n2)cc1	> 4 mM (inactive)
COC(=O)c1cccc2cc[nH]c12	> 4 mM (inactive)
O=C1CSC(=NC(=O)c2ccccc2)N1	> 4 mM (inactive)
O=C(Nn1cnnc1)c1cccc(C(F)(F)F)c1	> 4 mM (inactive)

Structure (SMILES)	Kd
O=C(c1ccncc1)c1ccc(Br)cc1	> 4 mM (inactive)
Cc1nc2ccccc2c(=O)n1CCCn1ccnc1	> 4 mM (inactive)
Cc1cc(C)c(C#N)c(N2CCCC2)n1	> 4 mM (inactive)
O=C(O)Cn1cnc2ccccc2c1=O	> 4 mM (inactive)
Nc1cc(C(=O)O)ccc1N1CCCCCC1	> 4 mM (inactive)
COc1cccc(NC(=O)c2cccs2)c1	> 4 mM (inactive)
CSc1ccccc1NC(=O)c1ccco1	> 4 mM (inactive)
O=C(O)c1ccc2ccccc2n1	> 4 mM (inactive)
CN1CCC2(CC1)CC1CC3C=CC1(CN2)O3 (stereo not given)	> 4 mM (inactive)
CC(=O)c1cc(CN2C(=O)c3ccccc3C2=O)cs1	> 4 mM (inactive)
CC(=O)c1cccc(NC(=O)C=C(C)C)c1	> 4 mM (inactive)
OCc1ccc(OC(F)(F)F)cc1	> 4 mM (inactive)
CCn1ccc(C(=O)Nc2nccs2)n1	> 4 mM (inactive)
C/C1=C\CCC(=O)C2CC(C)(C)C2CC1 (stereo not given)	> 4 mM (inactive)
O=C1CSC(=O)N1CNc1ccccc1	> 4 mM (inactive)
C[C@@H]1CC[C@@]23CCC4(C)[C@@](C=CC5[C@@]6(C)CCC(=O)C(C)(C)C6CC[C@]54C)(OC2=O)C3[C@H]1C (stereo not given in full)	> 4 mM (inactive)
Fc1ccc(CN2CCCNCC2)cc1	> 4 mM (inactive)
Nc1nc(-c2cccnc2)nn1C(=O)Cc1ccccc1	> 4 mM (inactive)
CC1/C(=N/O)C[C@@H]2C[C@H]1C2(C)C (stereo not given in full)	> 4 mM (inactive)
CCOC(=O)c1c(C)nc2ncccn12	> 4 mM (inactive)
Nc1ncnc2c1ncn2CCN1CCOCC1	> 4 mM (inactive)
O=C1CC(NCc2ccco2)C(=O)NN1 (stereo not given)	> 4 mM (inactive)
C=C1C2CC[C@@]3(C)[C@H](c4ccoc4)OC(=O)C[C@]13O[C@H]1CC(=O)C(C)(C)[C@H](C(O)C(=O)OC)[C@@]21C (stereo not given in full)	> 4 mM (inactive)
c1ccc(CCNc2ncnc3nc[nH]c23)cc1	> 4 mM (inactive)

Structure (SMILES)	Kd
Cc1nn(-c2ccccc2C(=O)O)c(=O)c2ccccc12	> 4 mM (inactive)
CC(CC(O)C1OC1(C)C)[C@@H]1CCC2(C)C3=CCC4C(C)(C)C(=O)CCC4(C)C3CC[C@@]12C (stereo not given in full)	> 4 mM (inactive)
O=C1C=C(Nc2ccc(O)cc2)c2ccccc2C1=O	> 4 mM (inactive)
Cc1cc(NC(=O)CS(=O)(=O)c2ccccc2)no1	> 4 mM (inactive)
CN1CCN(c2ccc(C(=O)O)cc2)CC1	> 4 mM (inactive)
Cc1nc2sc3c(c2c(=N)n1N)CC(C)(C)OC3	> 4 mM (inactive)
Cc1noc(-c2ccccc2)c1C(=O)O	> 4 mM (inactive)
O=C(CNC(=O)c1cccs1)NC1=NCCS1	> 4 mM (inactive)
O=C(NC1=NCCS1)c1ccc(Cl)s1	> 4 mM (inactive)
NC(=O)c1ccc(N2CCCCC2)c(N)c1	> 4 mM (inactive)
Cc1nnsc1C(=O)Nc1ccccc1[N+](=O)[O-]	> 4 mM (inactive)
CC(=O)NC(C)C12CC3CC(CC(C(=O)O)(C3)C1)C2 (stereo not given)	> 4 mM (inactive)
O=C(c1ccccc1)c1cncc(Br)c1	> 4 mM (inactive)
CCNC(=S)N1CCCC(C(N)=O)C1 (stereo not given)	> 4 mM (inactive)
c1ccc(-n2cnnc2)nc1	> 4 mM (inactive)
Cc1ccccc1OCC(=O)O	> 4 mM (inactive)
O=C(O)c1cc2ccccc2[nH]1	> 4 mM (inactive)
OCC1Cc2ccccc2N1 (stereo not given)	> 4 mM (inactive)
O=C(O)Cn1cc(C(F)(F)F)ccc1=O	> 4 mM (inactive)
COc1ccc(S(N)(=O)=O)cc1	> 4 mM (inactive)
COc1ccc(-c2coc3c(OC)c(OC)cc(O)c3c2=O)cc1	> 4 mM (inactive)
Nc1nc2ccccc2n1CCN1CCCC1	> 4 mM (inactive)
C/C=C(/C)C(=O)O[C@@H]1Cc2c(ccc3ccc(=O)oc23)OC1(C)C	> 4 mM (inactive)
Cc1cc(C(=O)NCc2cccnc2)cs1	> 4 mM (inactive)

Structure (SMILES)	Kd
Cc1occc1C(=O)N1CCC2(CC1)OCCO2	> 4 mM (inactive)
Fc1ccc2onc(C3CCNCC3)c2c1	> 4 mM (inactive)
Fc1cccc(Cl)c1CN1CCNCC1	> 4 mM (inactive)
C=C(C)[C@H]1CC=C(C(=O)O)CC1	> 4 mM (inactive)
Cc1cc(NC(=O)Cc2c(F)cccc2Cl)no1	> 4 mM (inactive)
NC(=O)c1ccc(C(N)=O)cc1	> 4 mM (inactive)
CC(C)=CCOc1cc2oc(=O)ccc2cc1O	> 4 mM (inactive)
Cc1nc2ccccc2c(=O)n1N1C(=O)CCCC1=O	> 4 mM (inactive)
Cc1nc(-c2cccc(N)c2)cs1	> 4 mM (inactive)
O=C(O)[C@H](O)[C@@](O)(Cc1ccc(O)cc1)C(=O)O	> 4 mM (inactive)
Cc1ncoc1C(=O)Nc1ccccc1C(N)=O	> 4 mM (inactive)
O=C1NC(=O)C2C3C=CC(O3)C12 (stereo not given)	> 4 mM (inactive)
CC(=O)c1c(O)cc(O)cc1O	> 4 mM (inactive)
Cc1cc(-c2ccc(Cl)cc2)n2nc(N)nc2n1	> 4 mM (inactive)
O=C(c1ccc(F)cc1)N1CCOCC1	> 4 mM (inactive)
Cc1cccc(NS(=O)(=O)c2cccs2)n1	> 4 mM (inactive)
CC(=O)O[C@H]1C[C@@H](OC(C)=O)C(C)(C)C2C[C@@H](OC(C)=O)[C@]3(C)C(CC[C@@]4(C)[C@H](c5ccoc5)C(=O)[C@H]5O[C@]543)[C@]21C (stereo not given in full)	> 4 mM (inactive)
Cc1nnc(N2CCc3ccccc3C2)[nH]c1=O	> 4 mM (inactive)
CC(=O)c1sc(NC(=O)C=C(C)C)nc1C	> 4 mM (inactive)
CC1(C)C2CC(=O)[C@]3(C)C(CC[C@@]4(C)[C@H](c5ccoc5)OC(=O)[C@H]5O[C@]543)[C@@]2(C)C=C[C@@H]1O (stereo not given in full)	> 4 mM (inactive)
CC1=NCCc2c1[nH]c1cc(O)ccc21	> 4 mM (inactive)
CC(=O)Oc1ccc(N2C(=O)C3C4C=CC(O4)C3C2=O)cc1 (stereo not given)	> 4 mM (inactive)
Oc1ccc2c(c1)OCO2	> 4 mM (inactive)
CCn1c(-c2c[nH]c3ccccc23)n[nH]c1=S	> 4 mM (inactive)

Structure (SMILES)	Kd
CC(=O)N=c1cccc(NC(C)=O)n1O	> 4 mM (inactive)
COc1ncccc1N	> 4 mM (inactive)
COc1c2c(cc3occ(-c4ccc5c(c4)OCO5)c(=O)c13)OC(C)(C)C=C2	> 4 mM (inactive)
Cc1oc(-c2ccccc2)cc1C(=O)O	> 4 mM (inactive)
CC(=O)O[C@@H]1CC2C(C)(C)C(=O)C=C[C@]2(C)C2CC[C@]3(C)C(=CC(=O)O[C@H]3c3ccoc3)[C@@]21C (stereo not given in full)	> 4 mM (inactive)
Cc1onc(-c2ccccc2)c1C(=O)O	> 4 mM (inactive)
O=C(O)c1snnc1-c1ccccc1	> 4 mM (inactive)
O=C1NC(=O)/C(=C\c2ccco2)S1	> 4 mM (inactive)
NC(=O)c1ccc(C(N)=O)c(-c2ccccc2)c1	> 4 mM (inactive)
COc1ccc2nc(N)sc2n1	> 4 mM (inactive)
NC(=O)C1CCN(c2ncnc(N)c2[N+](=O)[O-])CC1	> 4 mM (inactive)
COc1ccc(-c2cc(=O)c3c(OC)c(OC)c(OC)c(OC)c3o2)cc1OC	> 4 mM (inactive)
NC(=O)c1c(Cl)nsc1-c1ccccc1Cl	> 4 mM (inactive)
CC1(C)Cc2cccc(CO)c2O1	> 4 mM (inactive)
O=C1CC(=O)N(c2ccccc2)c2ccccc21	> 4 mM (inactive)
COc1ccc(-c2nc(C)sc2CC(=O)O)cc1	> 4 mM (inactive)
COc1cc2c(cc1OC)C1Cc3ccc(OC)c(OC)c3CN1CC2 (stereo not given)	> 4 mM (inactive)
C[C@H](CCC(=O)O)[C@H]1CCC2C3C(CC[C@@]21C)[C@@]1(C)CC[C@@H](O)C[C@H]1C[C@@H]3O (stereo not given in full)	> 4 mM (inactive)
COc1ccc(C)cc1S(=O)(=O)NC1CCCC1	> 4 mM (inactive)
COC(=O)c1sccc1S(=O)(=O)N1CCCC1	> 4 mM (inactive)
CC(=O)Nc1c(C#N)c(C(C)(C)C)cn1C	> 4 mM (inactive)
Nc1cccc(NC(=O)c2ccco2)c1	> 4 mM (inactive)
O=C(O)c1ccc2c(c1)OCCO2	> 4 mM (inactive)
CSc1nn(-c2ccccc2)c(N)c1C#N	> 4 mM (inactive)
